System: CRC cells co-encapsulated with fibroblasts, endothelial cells, and PBMCs in MOS
Experiment: Live/dead staining (Calcein AM / ethidium homodimer) of EpCAM-stained MOS after drug treatment
Format: cell-based
Settings: higher dose (33.3 μM) versus 1.23 μM, treated for three days, FIG. 3A
Text: FIG. 3A includes representative images showing live MOS staining of CRC cells co-encapsulated with fibroblasts, endothelial cells, and PBMCs, stained with EpCAM and treated with vehicle or oxaliplatin for three days, followed by staining with Calcein AM (CAM) and ethidium homodimer (EtH). FIG. 3B is a graph plotting differential drug responses observed for the CRC only condition and for CRCs co-encapsulated with the non-cancer cells, measured by CTG assay.
Additional images of stained live MOS are shown in FIG. 3A, which includes representative images of live MOS containing CRC cells co-encapsulated with fibroblasts, endothelial cells, and PBMCs, where the MOS were stained with EpCAM and treated with vehicle or oxaliplatin (1.23 μM or 33.3 μM) for three days, followed by staining with Calcein AM (CAM) and ethidium homodimer (EtH). […] When MOS encapsulating only CRC cells or MOS co-encapsulating CRC cells, fibroblasts, endothelial cells, and PBMCs were treated with oxaliplatin, differential responses to the treatment were observed between the CRC-only MOS and the co-encapsulated MOS, as determined by CTG assay (FIG. 3B). However, the drug responses of the CRC-only MOS versus the CRC/non-cancer cell co-encapsulated MOS were much more similar based on live cell dye (CAM): dead cell dye (EtH) ratios from EpCAM positive (FIG. 3C).

SMILES: O=C1[O][Pt]2([NH][C@@H]3CCCC[C@H]3[NH]2)[O]C1=O [oxaliplatin]
- EtH (dead) and Calcein AM (live) staining, degree of killing: a greater degree of killing

Source: patent US20260243775A1, “CELL LABELING AND ANNOTATION IN MICRO-ORGANOSPHERES” (Xilis, Inc., priority 2023, published 2026)
